Counter-ions that a name gives are not always drawn.

Sequence of recombinant human enteropeptidase (P98073 whole entry): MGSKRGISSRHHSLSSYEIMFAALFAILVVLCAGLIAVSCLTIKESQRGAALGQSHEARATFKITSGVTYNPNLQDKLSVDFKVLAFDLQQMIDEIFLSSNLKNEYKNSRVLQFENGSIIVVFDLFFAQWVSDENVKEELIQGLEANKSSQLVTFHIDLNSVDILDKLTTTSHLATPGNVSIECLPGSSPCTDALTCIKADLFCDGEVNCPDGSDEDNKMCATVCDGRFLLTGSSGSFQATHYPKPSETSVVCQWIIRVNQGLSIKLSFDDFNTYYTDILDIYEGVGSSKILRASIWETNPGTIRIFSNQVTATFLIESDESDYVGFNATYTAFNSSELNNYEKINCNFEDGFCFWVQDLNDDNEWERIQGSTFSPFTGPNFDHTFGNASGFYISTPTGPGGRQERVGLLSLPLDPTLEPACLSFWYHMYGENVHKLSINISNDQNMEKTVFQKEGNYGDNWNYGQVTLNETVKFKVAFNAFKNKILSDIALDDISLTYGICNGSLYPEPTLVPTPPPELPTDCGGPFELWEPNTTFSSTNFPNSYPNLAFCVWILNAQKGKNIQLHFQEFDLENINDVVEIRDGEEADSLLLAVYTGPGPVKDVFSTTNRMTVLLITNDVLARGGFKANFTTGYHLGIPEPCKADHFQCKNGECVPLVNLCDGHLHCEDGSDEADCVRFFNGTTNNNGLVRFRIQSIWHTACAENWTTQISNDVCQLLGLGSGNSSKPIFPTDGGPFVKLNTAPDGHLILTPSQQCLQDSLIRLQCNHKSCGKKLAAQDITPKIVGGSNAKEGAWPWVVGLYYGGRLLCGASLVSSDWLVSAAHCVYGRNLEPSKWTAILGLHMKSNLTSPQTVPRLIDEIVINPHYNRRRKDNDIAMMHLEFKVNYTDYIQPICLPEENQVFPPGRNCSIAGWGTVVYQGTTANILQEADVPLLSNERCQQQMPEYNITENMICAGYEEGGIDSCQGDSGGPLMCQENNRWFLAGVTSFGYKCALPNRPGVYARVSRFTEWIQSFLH

For the experiment, the target named is recombinant human enteropeptidase (Homo sapiens (Human), UniProt P98073). Nature of the experiment: Measurement of enteropeptidase inhibitory activity. To be noted: Dixon plot. The experiment is classed as biochemical. The method, then:
Measurement of Enteropeptidase Inhibitory Activity
Using a 96 well plate (#3915, Costar), a test compound (25 μL), 400 mM Tris-HCl buffer (pH 8.0, 25 μL) and 0.5 mg/mL fluorescence enzyme substrate (Gly-Asp-Asp-Asp-Asp-Lys-β-Naphtylamide, 25 μL) were mixed, and recombinant human enteropeptidase (R&D Systems, Inc., 25 μL) was added. Using a fluorescence plate reader fmax (Molecular Devices, Inc.), the reaction rate was measured from the time-course changes at excitation wavelength 320 nm and fluorescence wavelength 405 nm. The Ki value was calculated from the concentration of the test compound, reciprocal of reaction rate, and Km value of the enzyme substrate, and by using Dixon plot.
In the case of `CC(Cc1ccc(C(=O)Oc2ccc(C(=N)N)cc2)o1)C(=O)O` (stereo in doubt) [Compound A-42, 3-[5-(4-amidinophenoxycarbonyl)furan-2-yl]-2R-methylpropionic acid trifluoroacetic acid salt], the Ki is 710 pM. Take `C/C(=C\c1ccc(C(=O)Oc2ccc(C(=N)N)cc2)o1)C(=O)N[C@@H](CO)C(=O)O` [Compound A-1]: the Ki came out at 2270 pM. To `C/C(=C\c1ccc(C(=O)Oc2ccc(C(=N)N)cc2)o1)C(=O)NCC(=O)O` [Compound A-2] belongs 1970 pM; to `C/C(=C\c1ccc(C(=O)Oc2ccc(C(=N)N)cc2)o1)C(=O)O` [Compound A-3, (2E)-3-[5-(4-amidinophenoxycarbonyl)-furan-2-yl]-2-methylpropenoic acid trifluoroacetic acid salt], 1150 pM; to `CC(Cc1ccc(C(=O)Oc2ccc(C(=N)N)cc2)o1)C(=O)NCC(=O)O` (stereo not shown) [Compound A-4], 2680 pM. To `CC(Cc1ccc(C(=O)Oc2ccc(C(=N)N)cc2)o1)C(=O)N[C@@H](CO)C(=O)O` (stereo partly shown) [Compound A-5] belongs 1370 pM; to `CC(Cc1ccc(C(=O)Oc2ccc(C(=N)N)cc2)o1)C(=O)O` (stereo not shown) [Compound A-6, 3-[5-(4-amidinophenoxycarbonyl)furan-2-yl]-2-methylpropionic acid trifluoroacetic acid salt], 620 pM; to `C/C(=C\c1ccc(C(=O)Oc2ccc(C(=N)N)cc2)o1)C(=O)N(CCCO)CC(=O)O` [Compound A-7], 1490 pM. The same measure for `CC(Cc1ccc(C(=O)Oc2ccc(C(=N)N)cc2)o1)C(=O)N(CCCO)CC(=O)O` (stereo not shown) [Compound A-9]: 3170 pM; for `C/C(=C\c1ccc(C(=O)Oc2ccc(C(=N)N)cc2)o1)C(=O)N(CCO)Cc1ccccc1` [Compound A-10]: 6730 pM; for `C/C(=C\c1ccc(C(=O)Oc2ccc(C(=N)N)cc2)o1)C(=O)N(CCCO)CCC(=O)O` [Compound A-12, N-{(2E)-3-[5-(4-amidino-2-phenoxycarbonyl)furan-2-yl]-2-methylpropenoyl}-N-(3-hydroxypropyl)-β-alanine trifluoroacetic acid salt]: 3310 pM. For `C/C(=C\c1ccc(C(=O)Oc2ccc(C(=N)N)cc2)o1)C(=O)N[C@H](C(=O)O)C(C)O` (stereo partly shown) [Compound A-14], the Ki stood at 3520 pM. To `CC(Cc1ccc(C(=O)Oc2ccc(C(=N)N)cc2)o1)C(=O)N[C@@H](CCC(=O)O)C(=O)O` (stereo partly shown) [Compound A-15] belongs 1630 pM. To `CC(Cc1ccc(C(=O)Oc2ccc(C(=N)N)cc2)o1)C(=O)N[C@H](C(=O)O)C(C)O` (stereo partly shown) [Compound A-16] belongs 1880 pM; to `CC(Cc1ccc(C(=O)Oc2ccc(C(=N)N)cc2)o1)C(=O)N[C@@H](CC(=O)O)C(=O)O` (stereo partly shown) [Compound A-18], 610 pM.

With `CC(Cc1ccc(C(=O)Oc2ccc(C(=N)N)cc2)o1)C(=O)N1CCC[C@@H]1C(=O)O` (stereo partly shown) [Compound A-19], the Ki was determined as 1910 pM. The same measure for `CC(Cc1ccc(C(=O)Oc2ccc(C(=N)N)cc2)o1)C(=O)N1C[C@H](O)C[C@@H]1C(=O)O` (stereo partly shown) [Compound A-20]: 2540 pM.

Turning to `CC(Cc1ccc(C(=O)Oc2ccc(C(=N)N)cc2)o1)C(=O)N1C[C@@H](O)C[C@H]1C(=O)O` (stereo partly shown) [Compound A-21], the Ki stood at 4810 pM. To `C[C@H](Cc1ccc(C(=O)Oc2ccc(C(=N)N)cc2)o1)C(=O)N[C@@H](CC(N)=O)C(=O)O` [Compound A-22] belongs 950 pM; to `C[C@@H](Cc1ccc(C(=O)Oc2ccc(C(=N)N)cc2)o1)C(=O)N[C@@H](CC(N)=O)C(=O)O` [Compound A-23], 2000 pM.

As to `CC(Cc1ccc(C(=O)Oc2ccc(C(=N)N)cc2)o1)C(=O)N(CC(=O)O)CC(=O)O` (stereo not shown) [Compound A-26], the Ki stood at 680 pM. Turning to `CC(Cc1ccc(C(=O)Oc2ccc(C(=N)N)cc2)o1)C(=O)N[C@H](CCC(=O)O)C(=O)O` (stereo partly shown) [Compound A-27], the Ki is 570 pM. To `CC(Cc1ccc(C(=O)Oc2ccc(C(=N)N)cc2)o1)C(=O)N[C@H](CC(=O)O)C(=O)O` (stereo partly shown) [Compound A-28] belongs 420 pM; to `CCC(Cc1ccc(C(=O)Oc2ccc(C(=N)N)cc2)o1)C(=O)O` (stereo not shown) [Compound A-29, 3-[5-(4-amidinophenoxycarbonyl)furan-2-yl]-2-ethylpropionic acid trifluoroacetic acid salt], 820 pM; to `CC[C@H](Cc1ccc(C(=O)Oc2ccc(C(=N)N)cc2)o1)C(=O)N[C@H](CCC(=O)O)C(=O)O` [Compound A-30], 1030 pM. For the compound `CCC(Cc1ccc(C(=O)Oc2ccc(C(=N)N)cc2)o1)C(=O)N[C@H](CC(=O)O)C(=O)O` (stereo partly shown) [Compound A-31], the Ki was determined as 500 pM. To `N=C(N)c1ccc(OC(=O)c2ccc(CC(=O)O)o2)cc1` [Compound A-32, 5-(4-amidinophenoxycarbonyl)furan-2-ylacetic acid trifluoroacetic acid salt] belongs 620 pM.

With `CC(Cc1ccc(C(=O)Oc2ccc(C(=N)N)cc2F)o1)C(=O)O` (stereo not shown) [Compound A-33], the Ki was 650 pM. The same measure for `CCCC(Cc1ccc(C(=O)Oc2ccc(C(=N)N)cc2)o1)C(=O)O` (stereo not shown) [Compound A-34]: 980 pM; for `CC(Cc1ccc(C(=O)Oc2ccc(C(=N)N)cc2F)o1)C(=O)N[C@H](CC(=O)O)C(=O)O` (stereo partly shown) [Compound A-35, N-{3-[5-(4-amidino-2-fluorophenoxycarbonyl)furan-2-yl]-2-methylpropanoyl}-N-(D)-aspartic acid trifluoroacetic acid salt]: 250 pM; for `CC(Cc1ccc(C(=O)Oc2ccc(C(=N)N)cc2)o1)S(=O)(=O)O` (stereo not shown) [Compound A-36, 1-[5-(4-amidinophenoxycarbonyl)furan-2-yl]propane-2-sulfonic acid trifluoroacetic acid salt]: 580 pM. The same measure for `N=C(N)c1ccc(OC(=O)c2ccc(CCC(=O)O)o2)cc1` [Compound A-37]: 640 pM; for `N=C(N)c1ccc(OC(=O)c2ccc(CCC(=O)N[C@@H](CC(=O)O)C(=O)O)o2)cc1` [Compound A-38]: 570 pM; for `N=C(N)c1ccc(OC(=O)c2ccc(CC(=O)N[C@@H](CC(=O)O)C(=O)O)o2)cc1` [Compound A-39, N-[5-(4-amidinophenoxycarbonyl)furan-2-ylacetyl]-(L)-aspartic acid trifluoroacetic acid salt]: 670 pM. For `C[C@H](Cc1ccc(C(=O)Oc2ccc(C(=N)N)cc2)o1)C(=O)O` [Compound A-41, 3-[5-(4-amidinophenoxycarbonyl)furan-2-yl]-2S-methylpropionic acid trifluoroacetic acid salt], the Ki was found to be 500 pM. For `C[C@@H](Cc1ccc(C(=O)Oc2ccc(C(=N)N)cc2)o1)C(=O)N[C@@H](CC(=O)O)C(=O)O` [Compound A-43, N-{3-[5-(4-amidinophenoxycarbonyl)-furan-2-yl]-2S-methylpropionyl}-L-aspartic acid trifluoroacetic acid salt], the Ki worked out at 400 pM. For `C[C@H](Cc1ccc(C(=O)Oc2ccc(C(=N)N)cc2)o1)C(=O)N[C@@H](CC(=O)O)C(=O)O` [Compound A-44, N-[3-[5-(4-amidinophenoxycarbonyl)-furan-2-yl]-2R-methylpropionyl]-L-aspartic acid trifluoroacetic acid salt], the Ki worked out at 330 pM.

Usually Ki stands for the dissociation constant of the complex between target and ligand, obtained from inhibition or displacement.

(Values after US8609715B2, “Heteroarylcarboxylic acid ester derivative” (Ajinomoto Co., Inc., priority 2009, dated 2013).)
